Earlier results as cited in patent EP1204793B1, “STABLE SILICONE OIL EMULSION COMPOSITION, ARTICLE OF MANUFACTURE, AND METHOD OF FABRIC WRINKLE CONTROL” (THE PROCTER & GAMBLE COMPANY, priority 1999, dated 2001).
Where a name gives a salt, the structure may show the parent alone.

For `[H]/N=C(\N/C(=N/[H])NCCCCCCNC(=N)NC(=N)Nc1ccc(Cl)cc1)Nc1ccc(Cl)cc1` [digluconate salt, 1,1'-hexamethylene bis(5-(p-chlorophenyl)biguanide)], which solubility in water is on record?
The solubility in water was “about 70%”.

Which solubility in water does the source give for `[H]/N=C(\N/C(=N/[H])NCCCCCCNC(=N)NC(=N)Nc1ccc(Cl)cc1)Nc1ccc(Cl)cc1` [diacetate salt, 1,1'-hexamethylene bis(5-(p-chlorophenyl)biguanide)] here?
The solubility in water was “about 1.8%”.
